Values of other authors in patent publication US10702482B2, “Slow-release solid oral compositions” (GNOSIS SPA, priority 2013, dated 2020).

C[S+](CC[C@H](N)C(=O)O)C[C@H]1O[C@@H](n2cnc3c(N)ncnc32)[C@H](O)[C@@H]1O (stereo partly drawn) [SAMe, S-adenosyl-L-methionine]
oral bioavailability (in words): rather poor oral bioavailability
